{"source": "patent US8828934B2", "about": "“Mnk kinase homologous proteins involved in the regulation of energy homeostasis and organelle metabolism” (Boehringer Ingelheim International GmbH, priority 2001, dated 2014)", "origin": "cited, not measured here", "key": {"[1]": {"conditions": "not cytotoxic up to this concentration"}, "[2]": {"system": "Mnk2 (Mnk2a or Mnk2b) or Mnk1", "conditions": "compound added to cell culture cells transfected with Mnk2 (Mnk2a or Mnk2b) or Mnk1"}}}
{"compound": "Nc1ncnc2n[nH]c(Nc3ccc(F)cc3)c12", "note": "[CGP57380]", "values": [{"measurement": "concentration up to which not cytotoxic", "setting": "[1]", "result": "> 30", "unit": "µM"}, {"measurement": "reduction in phosphorylated eIF4E", "setting": "[2]", "result": "strong reduction in phosphorylated eIF4E"}]}
